# Experimental data as given in patent publication US20080269241A1, “BICYCLIC AMINOPROPYL TETRAHYDRO-PYRAZOLO-PYRIDINE MODULATORS OF CATHEPSIN S” (priority 2007, published 2008).
# Molecular target: T1, human cathepsin S (CatS) (Homo sapiens, UniProt P25774)
# T1 construct: made in house; host or cells: baculovirus system (insect cells)
# Assay: Recombinant human cathepsin S (CatS) fluorogenic substrate inhibition assay
# Format: biochemical
# Settings: not given
# Description: Recombinant human cathepsin S (CatS) was expressed in the baculovirus system and purified in one step with a thiopropyl-sepharose column. […] The assay is run in 150 mM sodium acetate pH 5.0 containing 1.5 mM DTT and 150 mM NaCl. […] Measurements are taken every min for 20 min. The rate is calculated from the slope of the increase in fluorescence and the percent inhibition is calculated from this.
# T1 sequence (P25774 115-331): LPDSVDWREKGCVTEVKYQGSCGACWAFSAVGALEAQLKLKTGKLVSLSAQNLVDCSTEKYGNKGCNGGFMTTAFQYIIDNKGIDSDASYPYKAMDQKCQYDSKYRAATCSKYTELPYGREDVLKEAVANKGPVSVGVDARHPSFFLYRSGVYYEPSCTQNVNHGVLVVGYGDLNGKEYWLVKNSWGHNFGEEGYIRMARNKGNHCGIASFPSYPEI
row,SMILES,IC50
1,"CN(C)C(=O)NCc1cc(-c2nn(CC(O)CN3CCC(n4c(=O)n(C)c5ccc(N(C)C)nc54)CC3)c3c2CN(S(C)(=O)=O)CC3)ccc1C(F)(F)F (stereo not drawn) [Example 147, 2-Dimethylamino-N-[5-(1-{3-[4-(5-Dimethylamino-1-methyl-2-oxo-1,2-dihydro-imidazo[4,5-b]pyridin-3-yl)-piperidin-1-yl]-2-hydroxy-propyl}-5-methanesulfonyl-4,5,6,7-tetrahydro-1H-pyrazolo[4,3-c]pyridin-3-yl)-2-trifluoromethyl-benzyl]-1,1-dimethyl-urea]",140 nM

# Same assay, conditions: recombinant human CatS, 10 μM Z-Valine-Valine-Arginine-AMC, pH 5.0; average of results obtained; read-out: CatS IC50
row,SMILES,IC50
1,"CS(=O)(=O)N1CCc2c(c(-c3ccc(C(F)(F)F)c(CNC(=O)c4ccc(N5CCOCC5)nc4)c3)nn2CC(O)CN2CCC(N3CCCC3=O)CC2)C1 (stereo not drawn) [Example 132, N-[5-(1-{2-Hydroxy-3-[4-(2-oxo-pyrrolidin-1-yl)-piperidin-1-yl]-propyl}-5-methanesulfonyl-4,5,6,7-tetrahydro-1H-pyrazolo[4,3-c]pyridin-3-yl)-2-trifluoromethyl-benzyl]-6-morpholin-4-yl-nicotinamide]",340 nM
2,"CC(=O)Nc1cc(C(=O)NCc2cc(-c3nn(CC(O)CN4CCC(N5CCCC5=O)CC4)c4c3CN(S(C)(=O)=O)CC4)ccc2C(F)(F)F)ccn1 (stereo not drawn) [Example 129, 2-Acetylamino-N-[5-(1-{2-hydroxy-3-[4-(2-oxo-pyrrolidin-1-yl)-piperidin-1-yl]-propyl}-5-methanesulfonyl-4,5,6,7-tetrahydro-1H-pyrazolo[4,3-c]pyridin-3-yl)-2-trifluoromethyl-benzyl]-isonicotinamide]",250 nM
3,"COc1ccc(NCc2cc(-c3nn(CCCN4CCC(N5CCCC5=O)CC4)c4c3CN(S(C)(=O)=O)CC4)ccc2Cl)cc1 [Example 209, 1-{1-[3-(3-{4-Chloro-3-[(4-methoxy-phenylamino)-methyl]-phenyl}-5-methanesulfonyl-4,5,6,7-tetrahydro-pyrazolo[4,3-c]pyridin-1-yl)-propyl]-piperidin-4-yl}-pyrrolidin-2-one]",660 nM
4,"Cc1nnsc1C(=O)NCc1cc(-c2nn(CC(O)CN3CCC(N4CCCC4=O)CC3)c3c2CN(S(C)(=O)=O)CC3)ccc1C(F)(F)F (stereo not drawn) [Example 51, 4-Methyl-[1,2,3]thiadiazole-5-carboxylic acid 5-(1-{2-hydroxy-3-[4-(2-oxo-pyrrolidin-1-yl)-piperidin-1-yl]-propyl}-5-methanesulfonyl-4,5,6,7-tetrahydro-1H-pyrazolo[4,3-c]pyridin-3-yl)-2-trifluoromethyl-benzylamide]",200 nM
5,"COc1ccc(C(=O)Nc2cc(-c3nn(CCCN4CCN(c5cccc(Cl)c5)CC4)c4c3CN(S(C)(=O)=O)CC4)ccc2Cl)cc1 [Example 228, N-[2-Chloro-5-(1-{3-[4-(3-chloro-phenyl)-piperazin-1-yl]-propyl}-5-methanesulfonyl-4,5,6,7-tetrahydro-1H-pyrazolo[4,3-c]pyridin-3-yl)-phenyl]-4-methoxy-benzamide]",760 nM
6,"CC(C)=CC(=O)NCc1cc(-c2nn(CC(O)CN3CCC(O)(c4ccccn4)CC3)c3c2CN(S(C)(=O)=O)CC3)ccc1C(F)(F)F (stereo not drawn) [Example 266, 3-Methyl-but-2-enoic acid 5-{1-[2-hydroxy-3-(4′-hydroxy-3′,4′,5′,6′-tetrahydro-2′H-[2,4′]bipyridinyl-1′-yl)-propyl]-5-methanesulfonyl-4,5,6,7-tetrahydro-1H-pyrazolo[4,3-c]pyridin-3-yl}-2-trifluoromethyl-benzylamide]",10 nM
7,"CS(=O)(=O)N1CCc2c(c(-c3ccc(C(F)(F)F)c(CNC(=O)Cc4ccncc4)c3)nn2CCCN2CCC(N3CCCC3=O)CC2)C1 [Example 189, N-[5-(5-Methanesulfonyl-1-{3-[4-(2-oxo-pyrrolidin-1-yl)-piperidin-1-yl]-propyl}-4,5,6,7-tetrahydro-1H-pyrazolo[4,3-c]pyridin-3-yl)-2-trifluoromethyl-benzyl]-2-pyridin-4-yl-acetamide]",510 nM

# The remaining lines, values ahead:
row,IC50,SMILES
1,120 nM,"CC(C)CC(=O)NCc1cc(-c2nn(CC(O)CN3CCC(N4CCCC4)CC3)c3c2CN(S(C)(=O)=O)CC3)ccc1C(F)(F)F (stereo not drawn) [Example 248, N-(5-{1-[2-Hydroxy-3-(4-pyrrolidin-1-yl-piperidin-1-yl)-propyl]-5-methanesulfonyl-4,5,6,7-tetrahydro-1H-pyrazolo[4,3-c]pyridin-3-yl}-2-trifluoromethyl-benzyl)-3-methyl-butyramide]"
2,180 nM,"Cc1nn(C)c2sc(C(=O)NCc3cc(-c4nn(CC(O)CN5CCC(N6CCCC6=O)CC5)c5c4CN(S(C)(=O)=O)CC5)ccc3C(F)(F)F)cc12 (stereo not drawn) [Example 123, 1,3-Dimethyl-1H-thieno[2,3-c]pyrazole-5-carboxylic acid 5-(1-{2-hydroxy-3-[4-(2-oxo-pyrrolidin-1-yl)-piperidin-1-yl]-propyl}-5-methanesulfonyl-4,5,6,7-tetrahydro-1H-pyrazolo[4,3-c]pyridin-3-yl)-2-trifluoromethyl-benzylamide]"
3,90 nM,"CCCC(=O)NCc1cc(-c2nn(CCCN3CCC(N4CCCC4=O)CC3)c3c2CN(S(C)(=O)=O)CC3)ccc1C(F)(F)F [Example 110, N-[5-(5-Methanesulfonyl-1-{3-[4-(2-oxo-pyrrolidin-1-yl)-piperidin-1-yl]-propyl}-4,5,6,7-tetrahydro-1H-pyrazolo[4,3-c]pyridin-3-yl)-2-trifluoromethyl-benzyl]-butyramide]"
4,100 nM,"CS(=O)(=O)N1CCc2c(c(-c3ccc(Cl)c(CNC(=O)c4ccc(F)cc4)c3)nn2CC(O)CN2CCC(N3CCCC3)CC2)C1 (stereo not drawn) [Example 14, N-(2-Chloro-5-{1-[2-hydroxy-3-(4-pyrrolidin-1-yl-piperidin-1-yl)-propyl]-5-methanesulfonyl-4,5,6,7-tetrahydro-1H-pyrazolo[4,3-c]pyridin-3-yl}-benzyl)-4-fluoro-benzamide]"
5,10 nM,"CS(=O)(=O)N1CCc2c(c(-c3ccc(Cl)c(CNC(=O)c4ccc(F)cc4)c3)nn2CC(O)CN2CCC(N3CCCCC3=O)CC2)C1 (stereo not drawn) [Example 72, N-(2-Chloro-5-{1-[2-hydroxy-3-(2-oxo-[1,4′]bipiperidinyl-1′-yl)-propyl]-5-methanesulfonyl-4,5,6,7-tetrahydro-1H-pyrazolo[4,3-c]pyridin-3-yl}-benzyl)-4-fluoro-benzamide]"
6,10 nM,"CC(C)CC(=O)NCc1cc(-c2nn(CC(O)CN3CCC(c4ccccn4)CC3)c3c2CN(S(C)(=O)=O)CC3)ccc1C(F)(F)F (stereo not drawn) [Example 257, N-(5-{1-[2-Hydroxy-3-(3′,4′,5′,6′-tetrahydro-2′H-[2,4′]bipyridinyl-1′-yl)-propyl]-5-methanesulfonyl-4,5,6,7-tetrahydro-1H-pyrazolo[4,3-c]pyridin-3-yl}-2-trifluoromethyl-benzyl)-3-methyl-butyramide]"
7,10 nM,"CC(C)=CC(=O)NCc1cc(-c2nn(CC(O)CN3CCC(n4cn[nH]c4=O)CC3)c3c2CN(S(C)(=O)=O)CC3)ccc1C(F)(F)F (stereo not drawn) [Example 268, 3-Methyl-but-2-enoic acid 5-(1-{2-hydroxy-3-[4-(5-oxo-1,5-dihydro-[1,2,4]triazol-4-yl)-piperidin-1-yl]-propyl}-5-methanesulfonyl-4,5,6,7-tetrahydro-1H-pyrazolo[4,3-c]pyridin-3-yl)-2-trifluoromethyl-benzylamide]"
